Data set [1] is described as follows: Calcium salt precipitation at 5° C. from spent acidizing solutions. In kind it is physicochemical. Conditions: 2.7 g CaCO3 in 100 ml, 65 hours at approximately 25° C., then 20 hours at 5° C. Here is the method:
100 ml solutions were prepared in deionised water in 100 ml Duran bottles: 2.7 g of laboratory grade CaCO3 was added to each solution. Acidizing was allowed to proceed at room temperature (approximately 25° C.) for 65 hours. To simulate the effect of low temperature spent acidizing solutions were placed in a refrigerator at 5° C. and observed at 20 hours for the presence of any precipitate.

A short description of data set [2]: Calcium salt precipitation following acidising of calcium carbonate in fresh water. In kind it is physicochemical. An excerpt: The dissolving capacities of delta glucono lactone and […] (a formic acid precursor commercially available from Cleansorb Limited of Guildford, UK) and their capacity for precipitation of calcium salts is shown in Table 1.

Each structure is given as a SMILES string.

With `O=C1O[C@H](CO)[C@@H](O)[C@H](O)[C@H]1O` [Glucono delta lactone, D-(+)-Gluconic acid δ-lactone], the “Calcium salt precipitated at 5° C. following acidising” value in data set [1] (10% w/v glucono delta lactone plus sodium acetate 5% w/v) was “No”; in data set [1] (10% w/v glucono delta lactone plus sodium lactate 60% solution 10.8% w/v) it was “No”; in data set [1] (10% w/v glucono delta lactone, no additional component), “Yes”; in data set [1] (22% w/v glucono delta lactone plus sodium acetate 5% w/v), “No”; in data set [1] (22% w/v glucono delta lactone plus sodium lactate 60% solution 10.8% w/v), “No”; in data set [1] (22% w/v glucono delta lactone, no additional component), “Yes”. In addition, the “Calcium salt precipitated following acidising of calcium carbonate in fresh water” value in data set [2] (acid precursor used at 1% w/v) was “No”; in data set [2] (acid precursor used at 2% w/v) it was “No”; in data set [2] (acid precursor used at 3% w/v), “Yes”; in data set [2] (acid precursor used at 5% w/v), “Yes”; in data set [2] (acid precursor used at 10% w/v), “Yes”.

For the origin of these results see patent publication US10604696B2, “Process for acidizing” (Cleansorb Limited, priority 2014, dated 2020).
